The RepoRT retention time repository (doi:10.1021/acs.analchem.2c02893)

Experiment: RP, Thermo Scientific Acclaim RSLC 120 C18, 100 × 2.1 mm, 2.2 µm, 30 °C, 0.2 mL/min, estimated dead time 1.1 min; A: 90% water + 10% methanol + 0.01% formic acid + 5 mM ammonium formate, pH 3.61; B: methanol + 0.01% formic acid + 5 mM ammonium formate, pH 3.61; gradient (min/%B) 0/1 1/1 2/39 13/99.9 15/99.9 15.1/1 20.1/1
Conditions: stereoisomer not certain

SMILES | LC retention time [min]
CNC(=O)CSP(=S)(OC)OC [Dimethoate] | 5.23
COc1ccc(C(=CC(=O)N2CCOCC2)c2ccc(Cl)cc2)cc1OC [Dimethomorph] | 9.22
CN(C)c1ccccc1 [Dimethylanilin (N.N-)] | 6.26
Cc1ccc(N)c(C)c1 [Dimethylaniline (2.4-) (Metabolite Amitraz)] | 5.04
COP(=O)(OC)OC(=CCl)c1ccc(Cl)cc1Cl [Dimethylvinphos] | 9.86
CC(C)(C)C(O)C(=Cc1ccc(Cl)cc1Cl)n1cncn1 (centres undefined) [Diniconazole] | 11.5
CNC(=N[N+](=O)[O-])NCC1CCOC1 (centres undefined) [Dinotefuran] | 3.59
CNC(=O)Oc1ccccc1C1OCCO1 [Dioxacarb] | 5.16
CCOP(=S)(OCC)SC1OCCOC1SP(=S)(OCC)OCC (centres undefined) [Dioxathion] | 12.1
CCNC(C)C(O)c1ccc(O)c(O)c1 (centres undefined) [Dioxethedrin] | 1.99
O=C1c2ccccc2C(=O)C1C(=O)C(c1ccccc1)c1ccccc1 [Diphacinone] | 8.6
CN(C)C(=O)C(c1ccccc1)c1ccccc1 [Diphenamide] | 8.57
CCOC(=O)C1(c2ccccc2)CCN(CCC(C#N)(c2ccccc2)c2ccccc2)CC1 [Diphenoxylate] | 10.4
CC(C)CC(C)Nc1ccc(Nc2ccccc2)cc1 (centres undefined) [Diphenylamin-4-(dimethylbutylamino) (6PPD)] | 9.92
CC(C)N(CCC(C(N)=O)(c1ccccc1)c1ccccn1)C(C)C (centres undefined) [Disopyramide] | 4.74
CCOP(=S)(OCC)SCCS(=O)(=O)CC [Disulfoton-sulfone] | 8.02
CCOP(=S)(OCC)SCCS(=O)CC (centres undefined) [Disulfoton-sulfoxide] | 7.86
CCOP(=S)(OCC)SCCSCC [Disulfoton] | 11.5

SMILES | LC retention time [min]
CCOP(=S)(OCC)N1C(=O)c2ccccc2C1=O [Ditalimfos] | 10.2
CSC(=O)c1c(C(F)F)nc(C(F)(F)F)c(C(=O)SC)c1CC(C)C [Dithiopyr] | 11.7
CCCCCCCCCCCCN=C(N)N [Dodine (Ion1+)] | 11.2
O=c1[nH]c2ccccc2n1CCCN1CCC(n2c(=O)[nH]c3cc(Cl)ccc32)CC1 [Domperidone] | 6.27
CCc1ccc(C(=O)c2cn(CCCCCF)c3ccccc23)c2ccccc12 [EAM-2201] | 12.2
CC=C1N(C)C(C)CC1(c1ccccc1)c1ccccc1 (centres undefined) [EDDP] | 6.38
CCCCCn1c2ccccc2c2cc(C(=O)c3cccc4ccccc34)ccc21 [EG-018] | 14.2
COC(=O)C1C(O)CC2CCC1N2C (centres undefined) [EME (Ecgonine methyl ester)] | 1.38
CCOP(=S)(Oc1ccc([N+](=O)[O-])cc1)c1ccccc1 (centres undefined) [EPN] | 11.7
CCC(N)Cc1c[nH]c2ccccc12 (stereo not drawn) [ET- alpha] | 5.04
CCOP(=O)(Sc1ccccc1)Sc1ccccc1 [Edifenphos] | 10.8
CCC(C)C1OC2(C=CC1C)CC1CC(CC=C(C)C(OC3CC(OC)C(OC4CC(OC)C(NC)C(C)O4)C(C)O3)C(C)C=CC=C3COC4C(O)C(C)=CC(C(=O)O1)C34O)O2 (centres undefined) [Emamectin B1a] | 12.4
CCC(CC)(CNC(=O)CCCO)c1cccc(OC)c1 [Embutramide] | 8.98
O=S1(=O)OCC2C(CO1)C1(Cl)C(Cl)=C(Cl)C2(Cl)C1(Cl)Cl (centres undefined) [Endosulfan-sulfate] | 11.1
O=S1OCC2C(CO1)C1(Cl)C(Cl)=C(Cl)C2(Cl)C1(Cl)Cl (centres undefined) [Endosulfan] | 11.2
O=C(O)C1C2CCC(O2)C1C(=O)O (centres undefined) [Endothal] | 3.2
Fc1ccc(C2(Cn3cncn3)OC2c2ccccc2Cl)cc1 (centres undefined) [Epoxiconazole] | 10.3

Results, then the compound that gave them:

LC retention time [min] | SMILES
4.24 | CCN(CC)CC(C)(C)COC(=O)c1ccc(N)cc1 [Dimethocain]
15 | CCCCCCCCCCCCCCCCCC[N+](C)(C)CCCCCCCCCCCCCCCCCC [Dimethyldioctadecylammonium]
6.86 | CC(C1=C(CCN(C)C)Cc2ccccc21)c1ccccn1 (centres undefined) [Dimetindene]
7.01 | CC(CN1c2ccccc2Sc2ccc(S(=O)(=O)N(C)C)cc21)N(C)C (centres undefined) [Dimetotiazine]
4.27 | Cc1ncc([N+](=O)[O-])n1C [Dimetridazole]
10.7 | CNC(=O)C(=NOC)c1ccccc1COc1cc(C)ccc1C [Dimoxystrobin]
13.1 | CC=CC(=O)Oc1c(C(C)CCCCCC)cc([N+](=O)[O-])cc1[N+](=O)[O-] (centres undefined) [Dinocap]
15.1 | CC1CCC2(OC1)OC1CC3C4CC=C5CC(O)CCC5(C)C4CCC3(C)C1C2C (centres undefined) [Diosgenin]
8.18 | CCCc1nn(C)c2c(=O)[nH]c(-c3cc(C(=O)CN4CCN(CC)C(=O)C4=O)ccc3OCC)nc12 [Dioxohongdenafil]
6.63 | CN(C)CCOC(c1ccccc1)c1ccccc1 [Diphenhydramine]
10.1 | c1ccc(Nc2ccccc2)cc1 [Diphenylamine]
7.23 | CN1CCC(OC(c2ccccc2)c2ccccc2)CC1 [Diphenylpyraline]
3.76 | Cn1c(=O)c2c(ncn2CC(O)CO)n(C)c1=O (centres undefined) [Diprophylline]
9.36 | OCCN(CCO)c1nc(N2CCCCC2)c2nc(N(CCO)CCO)nc(N3CCCCC3)c2n1 [Dipyridamole]
4.49 | Cc1c(N(C)CS(=O)(=O)O)c(=O)n(-c2ccccc2)n1C [Dipyron (Metamizol)]
8.64 | CN(C)C(=O)Nc1ccc(Cl)c(Cl)c1 [Diuron]
9.08 | CC(CN1CCN(CCOCCO)CC1)CN1c2ccccc2Sc2ccccc21 (centres undefined) [Dixyrazine]
4.21 | CC(CCc1ccc(O)cc1)NCCc1ccc(O)c(O)c1 (centres undefined) [Dobutamine]
5.81 | COc1cc2c(cc1OC)C(=O)C(CC1CCN(Cc3ccccc3)CC1)C2 (centres undefined) [Donepezil]
3.19 | CCNC1CC(C)S(=O)(=O)c2sc(S(N)(=O)=O)cc21 (centres undefined) [Dorzolamide]
7.61 | CN(C)CCC=C1c2ccccc2CSc2ccccc21 [Dosulepin]
6.23 | CCN1CC(CCN2CCOCC2)C(c2ccccc2)(c2ccccc2)C1=O (centres undefined) [Doxapram]
7.03 | CNCCC=C1c2ccccc2COc2ccccc21 [Doxepin-Nor]
7.01 | CN(C)CCC=C1c2ccccc2COc2ccccc21 [Doxepin]
6.2 | CC1c2cccc(O)c2C(O)=C2C(=O)C3(O)C(O)=C(C(N)=O)C(=O)C(N(C)C)C3C(O)C21 (centres undefined) [Doxycycline]

LC retention time [min] | SMILES
5.18 | CN(C)CCOC(C)(c1ccccc1)c1ccccn1 (centres undefined) [Doxylamine]
10.3 | Cc1[nH]oc(=O)c1N=Nc1ccccc1Cl [Drazoxolon]
9.19 | CCN(CC)CCOC(=O)C(c1ccccc1)C1CCCCC1 (centres undefined) [Drofenine]
10.1 | CCCCc1oc2ccc(NS(C)(=O)=O)cc2c1C(=O)c1ccc(OCCCN(CCCC)CCCC)cc1 [Dronedarone]
6.16 | O=C(CCCN1CC=C(n2c(=O)[nH]c3ccccc32)CC1)c1ccc(F)cc1 [Droperidol]
3.79 | OCC(O)CN1CCN(c2ccccc2)CC1 (centres undefined) [Dropropizine]
9.56 | CC12CCC(=O)C=C1C1CC1C1C2CCC2(C)C1C1CC1C21CCC(=O)O1 (centres undefined) [Drospirenone]
8.11 | CNCCC(Oc1cccc2ccccc12)c1cccs1 (centres undefined) [Duloxetine]
10.7 | CC(=O)C1CCC2C3C=CC4=CC(=O)CCC4(C)C3CCC12C (centres undefined) [Dydrogesterone]
9.56 | CC12CCC3c4ccc(O)cc4CCC3C1CCC2=O (centres undefined) [E1 (1-3-5(10)-estratrien-3-ol-17-one estrone)]
6.83 | CC12CCC3c4ccc(O)cc4CCC3C1CC(O)C2O (centres undefined) [E3  estriol (1-3-5(10)-estratrien-3 16-17-triol)]
9.46 | C#CC1(O)CCC2C3CCc4cc(O)ccc4C3CCC21C (centres undefined) [EE2 - Ethinyl estradiol]
10.7 | CCCN(CCC)C(=O)SCC [EPTC]
10.9 | CC(C)(C)c1ccc(C(=O)CCCN2CCC(OC(c3ccccc3)c3ccccc3)CC2)cc1 [Ebastine]
10.7 | O=C1Nc2ccc(Cl)cc2C(C#CC2CC2)(C(F)(F)F)O1 (centres undefined) [Efavirenz]
5.51 | CN1CCCC1Cc1c[nH]c2ccc(CCS(=O)(=O)c3ccccc3)cc12 (centres undefined) [Eletriptan]
12 | CNC1C(C)OC(OC2C(C)OC(OC3C(C)=CCC4CC(CC5(C=CC(C)C(C(C)C)O5)O4)OC(=O)C4C=C(C)C(O)C5OCC(=CC=CC3C)C45O)CC2OC)CC1OC (centres undefined) [Emamectin B1b]
3.41 | Nc1nc(=O)n(C2CSC(CO)O2)cc1F (centres undefined) [Emtricitabine]
6.83 | CCOC(=O)C(CCc1ccccc1)NC(C)C(=O)N1CCCC1C(=O)O (centres undefined) [Enalapril]
6.67 | CSc1ccc(C(=O)c2[nH]c(=O)[nH]c2C)cc1 [Enoximon]
4.64 | CCN1CCN(c2cc3c(cc2F)c(=O)c(C(=O)O)cn3C2CC2)CC1 [Enrofloxacin]
6.89 | CCN(CC)C(=O)C(C#N)=Cc1cc(O)c(O)c([N+](=O)[O-])c1 [Entacapon]
1.38 | CNCC(O)c1ccc(O)c(O)c1 (centres undefined) [Epinephrine]
7.49 | CCCCc1ncc(C=C(Cc2cccs2)C(=O)O)n1Cc1ccc(C(=O)O)cc1 [Eprosartan]
